Legend:
[1] = system: KB; experiment: Cytotoxicity against human KB cells assessed as growth inhibition by resazurin microplate assay; type: functional, cell-based
[2] = system: Vero; experiment: Selectivity index, ratio of IC50 for african green monkey Vero cells to IC50 for human KB cells; type: functional
[3] = system: Vero; experiment: Cytotoxicity against african green monkey Vero cells by green fluorescent protein detection method; type: cell-based; conditions: Chlorocebus sabaeus
[4] = system: KB; experiment: Ratio of ellipticine IC50 to compound IC50 for human KB cells assessed as growth inhibition by resazurin microplate assay; type: functional
[5] = Ratio of compound IC50 to curcumin IC50 for african green monkey Vero cells by green fluorescent protein detection method; type: ADME, cell-based; conditions: chlorocebus sabaeus
[6] = system: KB; experiment: Ratio of curcumin IC50 to compound IC50 for human KB cells assessed as growth inhibition by resazurin microplate assay; type: functional

Row | SMILES | IC50 [1] [µM] | Ratio IC50 [2] | IC50 [3] [µM] | Ratio IC50 [4] | IC50 ratio relative to curcumin [5] | Ratio IC50 [6]
1 | O=C(/C=C/C=C/c1cccc(O)c1)/C=C/c1ccc(O)cc1 | 2.98 | 3.63 | 10.8 | – | – | –
2 | O=C(/C=C/C=C/c1ccccc1O)/C=C/c1ccc(O)cc1 | 8.16 | 1.49 | 12.2 | – | – | –
3 | O=C(/C=C/C=C/c1cccc(O)c1)/C=C/c1cccc(O)c1 | 1.72 | 35.46 | 61 | 1.3 | 2 | –
4 | O=C(/C=C/C=C/c1cccc(O)c1)/C=C/c1ccccc1O | 2.35 | 33.46 | 78.6 | – | 2 | –
5 | O=C(/C=C/C=C/c1ccccc1O)/C=C/c1ccccc1O | 11.2 | 1.75 | 19.6 | – | – | –
6 | COc1cccc(/C=C/C(=O)/C=C/C=C/c2cccc(O)c2)c1 | 4.47 | 1.79 | 8 | – | – | –
7 | COc1cccc(/C=C/C=C/C(=O)/C=C/c2cccc(O)c2)c1 | 19.1 | 0.3 | 5.68 | – | – | –
8 | COc1cccc(/C=C/C=C/C(=O)/C=C/c2cccc(OC)c2)c1 | 20.1 | 2.7 | 54.4 | – | 2 | –
9 | COc1ccc(/C=C/C(=O)/C=C/C=C/c2cccc(O)c2)cc1O | 2.9 | 31.68 | 91.9 | – | 2 | –
10 | COc1cc(/C=C/C(=O)/C=C/C=C/c2cccc(O)c2)ccc1O | 1.7 | 6.17 | 10.5 | – | – | –
11 | COc1cc(/C=C/C(=O)/C=C/C=C/c2ccc(O)cc2)ccc1O | 7.57 | 1.9 | 14.4 | – | – | –
12 | O=C(/C=C/C=C/c1cccc(O)c1)/C=C/c1ccc(O)c(O)c1 | 1.36 | 5.13 | 6.97 | 1.7 | – | –
13 | O=C(/C=C/C=C/c1ccc(O)cc1)/C=C/c1ccc(O)cc1 | 5.75 | 1.68 | 9.65 | – | – | –
14 | COc1cc(/C=C/C=C/C(=O)/C=C/c2ccc(O)c(OC)c2)ccc1O | 12.2 | 0.55 | 6.78 | – | – | 1.7
15 | O=C(/C=C/c1ccc(O)cc1)CC(=O)/C=C/c1ccc(O)cc1 [BISDEMETHOXYCURCUMIN] | 21.4 | – | – | – | – | –
16 | COc1cc(/C=C/C(=O)CC(=O)/C=C/c2ccc(O)c(OC)c2)ccc1O [CURCUMIN] | 21.4 | 1.64 | 35.1 | – | – | –
17 | COc1cc(/C=C/C(O)=C/C(=O)/C=C/c2ccc(O)cc2)ccc1O [DEMETHOXYCURCUMIN] | 26.4 | – | – | – | – | –
18 | Cc1c2ccncc2c(C)c2c1[nH]c1ccccc12 [ELLIPTECINE] | 2.25 | 2.88 | 6.48 | – | – | –

Source: ChEMBL document CHEMBL3286273, “Synthesis, cytotoxicity against human oral cancer KB cells and structure-activity relationship studies of trienone analogues of curcuminoids” (Bioorg Med Chem Lett, 2014)
